The values that follow come from ChEMBL document CHEMBL1201862, “PubChem BioAssay data set” (2004).

Assay in all cases: DTP human tumour cell line panel, 48 h
For experiment [1], the system named is DLD-1.
The subject of experiment [2] is DMS-114.
Experiment [3] deals with HOP-18.
Experiment [4] deals with KM-20L2.
The test system of experiment [5] is LXFL 529.
The subject of experiment [6] is M19-MEL.
Experiment [7] deals with RXF 631.
For experiment [8], the system named is SNB-78.
For experiment [9], the system named is XF498.

Values joined by “and” are separate entries in the source; they are usually repeats but may differ in a detail not shown here. Equal entries are not always repeated.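 In this assay, cells in 96-well plates receive the compound at five concentrations for 48 hours. Endpoints are linearly interpolated between the surrounding concentrations. At the GI50, growth is halved.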 Active and inactive are the calls of the source. Rule as the data show it: active = GI50 up to about 1.1 µM and inactive = higher.

In general, GI50 refers to the concentration giving 50% growth inhibition.

In the case of `Cc1cc(N(CCC#N)CCC#N)ccc1/C=C1\N=C(c2cc([N+](=O)[O-])ccc2Cl)N(c2cccc(Cl)c2)C1=O`, the GI50 in experiment [1], in [2], in experiment [3], in experiment [4], in experiment [5] and in [6] was > 100 µM (inactive) each time. For the same compound, the GI50 in experiment [7] and in experiment [8] was > 100 µM (inactive) in each case.
In the case of `O=c1cc(-c2ccccc2)oc2cc(OCCSCCCCCCCCCCSCCOc3ccc4c(=O)cc(-c5ccccc5)oc4c3)ccc12`, the GI50 in experiment [1], in experiment [2], in experiment [3], in experiment [4], in experiment [5] and in experiment [6] was > 100 µM (inactive) throughout. Moreover, the GI50 was > 100 µM (inactive) in experiment [7] and 68.2 µM (inactive) in [8].
With `O=C1[C@@H]2C(c3ccccc3F)=NO[C@@H]2C(=O)N1c1ccc(Cc2ccc(N3C(=O)[C@H]4C(c5ccccc5F)=NO[C@H]4C3=O)cc2)cc1`, the GI50 in experiment [1], in experiment [2], in experiment [3], in experiment [4], in [5] and in experiment [6] was > 100 µM (inactive) in each case. Also, the GI50 in experiment [7] is > 100 µM (inactive); in experiment [8], > 100 µM (inactive); in experiment [9], > 87.3 µM (inactive).
On to `Nc1nc(N)c(CCCCc2ccc([N+](=O)[O-])cc2)c(N)n1`, for which the GI50 is 27 µM (inactive) in experiment [1]; 20.8 µM (inactive) in experiment [2]; > 100 µM (inactive) in experiment [3]; 36.1 µM (inactive) in experiment [4]; 47.8 µM (inactive) in [5]; > 100 µM (inactive) in experiment [6]. Moreover, the GI50 in [8] and in experiment [9] was > 100 µM (inactive) each time.
`COC(=O)/C(=C/c1ccc(OC)cc1)NC(=O)c1ccccc1`: the GI50 in experiment [1], in [2], in [4] and in experiment [5] was > 100 µM (inactive) throughout.
In the case of `O=C1/C(=C\c2ccccc2)C2/C(=C\c3ccccc3)C(=O)/C(=C\c3ccccc3)C2/C1=C\c1ccccc1` (centres undefined), the GI50 is 1.22 µM (inactive) in [1]; 1.73 µM (inactive) in experiment [2]; 48 µM (inactive) in [3]; 1.78 µM (inactive) in [4]; 0.681 µM (active) in experiment [5]; 1.53 µM (inactive) in [6]. Further, the GI50 in experiment [7] was 3.12 µM (inactive).
Consider `Nc1ncnc2c1ncn2C1CC(OCc2ccccc2[N+](=O)[O-])C(CO)O1` (centres undefined), for which the GI50 in experiment [1] was 23.7 µM (inactive); in experiment [2], 16.4 µM (inactive); in experiment [3] it was 26.6 µM (inactive); in [4], 22.2 µM (inactive); in experiment [5], 13.6 µM (inactive); in [6] it was 16.1 µM (inactive). Moreover, the GI50 in [8] was 18.2 µM (inactive); in [9] it was 42.2 µM (inactive).
`CCCCOC1CC2(c3ccc(OC)cc3)C(=O)c3ccccc3N2O1` (centres undefined): the GI50 in experiment [2] is 30 µM (inactive); in experiment [4] it was > 10 µM (inactive); in experiment [6], > 10 µM (inactive); in experiment [7] it was > 10 µM (inactive); in [8], > 10 µM (inactive); in experiment [9], > 10 µM (inactive).
Regarding `CCOC(=O)CCn1ncc(Cl)c(Cl)c1=O`, the GI50 in experiment [1] is 5.5 µM (inactive); in [2] it was 2.1 µM (inactive); in [3], 3.99 µM (inactive); in [4], 14.2 µM (inactive); in [5] it was 3.84 µM (inactive); in experiment [6], 2.58 µM (inactive). The GI50 in experiment [7] is 2.97 µM (inactive); in experiment [8] it was 6.22 µM (inactive); in [9] it was 20.5 µM (inactive).
Turning to `COc1ccc(/C=c2/sc3n(c2=O)NC(c2ccc(Cl)cc2)NN=3)cc1` (centres undefined), the GI50 in experiment [1] was > 100 µM (inactive); in experiment [2], 58.5 µM (inactive); in [4], > 100 µM (inactive); in experiment [5], > 100 µM (inactive); in [6] it was > 100 µM (inactive); in experiment [8] it was > 100 µM (inactive). In addition, the GI50 in experiment [9] was 51.8 µM (inactive).
Regarding `O=C(O)Cn1c(=O)[nH]c(=O)c2c1ncn2Cc1ccccc1`, the GI50 in experiment [1], in experiment [2], in experiment [4], in [5], in experiment [6] and in experiment [7] was > 100 µM (inactive) each time. For the same compound, the GI50 in experiment [8] and in experiment [9] was > 100 µM (inactive) throughout.
Turning to `C=CCN1/C(=C2\SC(=S)N(c3ccc(C)cc3)C2=O)Sc2c1nc[nH]c2=O`, the GI50 is > 100 µM (inactive) in experiment [1]; 76.9 µM (inactive) in [2]; > 100 µM (inactive) in [4]; > 100 µM (inactive) in experiment [5]; > 100 µM (inactive) in experiment [6]; > 100 µM (inactive) in experiment [8]. Further, the GI50 in experiment [9] is > 100 µM (inactive).
With `O=C(c1ccccc1)C1OC12C(=O)Nc1ccccc12` (centres undefined), the GI50 in experiment [1] is 32.7 µM (inactive); in experiment [2], 27 µM (inactive); in experiment [4] it was 28.1 µM (inactive); in [5] it was 16.5 µM (inactive); in experiment [6], 30.4 µM (inactive); in experiment [7], 46 µM (inactive). Moreover, the GI50 in experiment [8] was 43.5 µM (inactive); in experiment [9], 26.2 µM (inactive).
On to `Nc1nnc2c(-c3ccccc3)n[nH]c2n1`, for which the GI50 in experiment [2] was > 100 µM (inactive); in experiment [4], 49.8 µM (inactive); in [5] it was 77.4 µM (inactive); in experiment [8] it was 49.3 µM (inactive).
On to `CSc1nnc2n1-c1ccccc1SCC2`, for which the GI50 in [1], in experiment [2], in [3], in [4], in [5] and in [6] was > 100 µM (inactive) in each case. Besides, the GI50 in experiment [8] and in experiment [9] was > 100 µM (inactive) throughout.
With `CCCCCCCCCCCCCP(=O)(O)OCC`, the GI50 in experiment [1], in experiment [2], in [3], in experiment [4], in experiment [5] and in experiment [6] was > 100 µM (inactive) in each case. For the same compound, the GI50 in experiment [7] and in experiment [8] was > 100 µM (inactive) each time.
Regarding `CC(C)OP(=S)(NC(=S)c1ccccc1)OC(C)C`, the GI50 in experiment [1] was > 100 µM (inactive); in [2], 78 µM (inactive); in experiment [4] it was > 100 µM (inactive); in experiment [5] it was 87.3 µM (inactive); in [8], > 100 µM (inactive); in experiment [9], > 100 µM (inactive).
For the compound `CC1(C)OC2C(O1)[C@H]1OC(C(Cl)(Cl)Cl)=N[C@H]1C(I)[C@H]2N1C(=O)c2ccccc2C1=O` (some centres undefined), the GI50 was > 100 µM (inactive) in experiment [1]; 30.6 µM (inactive) in [2]; > 100 µM (inactive) in experiment [3]; 60.4 µM (inactive) in experiment [4]; 50.2 µM (inactive) in experiment [5]; 69.8 µM (inactive) in experiment [6]. Moreover, in experiment [8], the GI50 was 73.3 µM (inactive).
For the compound `O=C1C=CC2(O)OCC3C=C4O[C@@H]5OC6(CCCCC6)O[C@@H]5C4[C@@H]2[C@@H]13` (some centres undefined), the GI50 in [1] is 22.4 µM (inactive); in experiment [2], 21.5 µM (inactive); in experiment [3], > 100 µM (inactive); in experiment [4], 48.3 µM (inactive); in experiment [5], 15.1 µM (inactive); in experiment [6] it was 21.1 µM (inactive). The figures for the GI50 in experiment [8] and in [9] were 24.4 µM (inactive) and 27.2 µM (inactive), respectively.
With `NCCCC1NC(=O)/C(=C(O)/C=C/C2CCC[C@@H]2CC2SCCS2)C1=O` (some centres undefined), the GI50 in experiment [1] was > 100 µM (inactive); in experiment [2], 86.3 µM (inactive); in [3], 82.6 µM (inactive); in [4] it was > 100 µM (inactive); in [5] it was 75 µM (inactive); in experiment [6] it was > 100 µM (inactive).
Take `COC(=O)CC(C(C(C)=O)C(=O)OCc1ccccc1)N1C(=O)OC(c2ccccc2)C1c1ccccc1` (centres undefined): the GI50 in [1] is 64.7 µM (inactive); in experiment [2], 30.5 µM (inactive) and 39.4 µM (inactive); in experiment [5], 49.1 µM (inactive) and 50.4 µM (inactive); in [6], 85.1 µM (inactive) and 73.8 µM (inactive); in [7], 89.7 µM (inactive); in experiment [9] it was 67.1 µM (inactive).
In the case of `Cc1nc(-c2nc(C)c(C(=O)NNC(=O)C[n+]3ccccc3)s2)sc1C(=O)NNC(=O)C[n+]1ccccc1`, the GI50 in [1] was 19.3 µM (inactive); in [2], 66.8 µM (inactive); in experiment [4] it was > 100 µM (inactive); in experiment [5], 91 µM (inactive); in experiment [6], > 100 µM (inactive); in experiment [8], 54.8 µM (inactive).
In the case of `c1ccc2c(CNCCCCCCCCNCc3cccc4ccccc34)cccc2c1`, the GI50 in [1] is 2.11 µM (inactive); in [2] it was 1.91 µM (inactive); in [3], 5.41 µM (inactive); in experiment [4], 1.75 µM (inactive); in experiment [5] it was 1.82 µM (inactive); in experiment [6], 1.73 µM (inactive). In addition, the GI50 in experiment [8] was 2.24 µM (inactive); in [9], 1.79 µM (inactive).
Regarding `COc1ccc(NCc2cc(OC)c(OC)c(OC)c2)cc1`, the GI50 was 0.421 µM (active) in experiment [1], 0.238 µM (active) in experiment [4] and 0.408 µM (active) in experiment [5].
Consider `CC(CN1CC(=O)NC(=O)C1)N1CC(=O)NC(=O)C1` (centres undefined) [RAZOXANE], for which the GI50 in experiment [1] was 245 µM (inactive); in experiment [2], 67.9 µM (inactive); in experiment [3], 277 µM (inactive); in experiment [4] it was 174 µM (inactive); in experiment [6], 299 µM (inactive); in experiment [8] it was 449 µM (inactive). The GI50 in experiment [9] is 234 µM (inactive).
